PMC8348686, “The Pharmacological Profile of Second Generation Pyrovalerone Cathinones and Related Cathinone Derivative” (International Journal of Molecular Sciences, 2021)
Read-outs that look alike come from different tables or passages of the source.

Legend:
[1] = target: T1, human norepinephrine (hNET) uptake transporter (Homo sapiens, UniProt P23975); test: Monoamine uptake inhibition, norepinephrine uptake in transfected HEK293 cells; assay type: cell-based; settings: for fold higher inhibition potency at the NET: compared to α-PPP
T1 construct: expressed in transfected cells; host or cells: HEK293
T1 sequence (P23975 whole entry): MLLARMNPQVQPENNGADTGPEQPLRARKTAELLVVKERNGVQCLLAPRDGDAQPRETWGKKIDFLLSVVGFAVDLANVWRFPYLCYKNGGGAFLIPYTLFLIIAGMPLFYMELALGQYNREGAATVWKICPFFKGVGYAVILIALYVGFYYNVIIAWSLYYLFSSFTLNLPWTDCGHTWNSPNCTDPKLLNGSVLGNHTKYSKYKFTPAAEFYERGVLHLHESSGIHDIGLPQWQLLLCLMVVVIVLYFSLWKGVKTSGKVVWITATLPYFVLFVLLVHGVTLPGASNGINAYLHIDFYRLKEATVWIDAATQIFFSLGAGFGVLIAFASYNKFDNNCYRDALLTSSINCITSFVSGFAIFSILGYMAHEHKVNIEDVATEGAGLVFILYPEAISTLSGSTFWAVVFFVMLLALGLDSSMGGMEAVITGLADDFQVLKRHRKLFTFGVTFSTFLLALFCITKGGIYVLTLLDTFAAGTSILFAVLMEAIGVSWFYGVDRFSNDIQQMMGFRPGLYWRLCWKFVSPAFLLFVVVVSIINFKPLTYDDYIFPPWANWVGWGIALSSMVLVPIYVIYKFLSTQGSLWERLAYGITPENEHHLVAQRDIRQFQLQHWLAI
Description: (§1) The monoamine uptake transporter inhibition was examined in accordance with previously described methods by for each substance of interest.
(§2) Human embryonic kidney 293 (HEK293) cells (Invitrogen, Zug, Switzerland) stably transfected with the human norepinephrine (hNET), dopamine (hDAT), or serotonin (hSERT) uptake transporters were briefly cultured in Dulbecco’s modified Eagle’s medium (DMEM; Gibco, Life Technologies, Zug, Switzerland) containing 10% fetal bovine serum and 250 μg/mL geneticin (Gibco, Life Technologies, Zug, Switzerland). Next, the cells were detached at a confluency of 70−90% and resuspended in Krebs–Ringer Bicarbonate Buffer (Sigma-Aldrich, Buchs, Switzerland) at a concentration of 3 × 10^6 cells per ml. The uptake buffer was additionally supplemented with 0.2 mg/mL of ascorbic acid (Sigma–Aldrich, Buchs, Switzerland) for the [^3H]-DA uptake experiments.
(§3) In summary, using round bottom 96-well plates, 100 μL of cell suspension was incubated in 25 μL of buffer containing test substances, vehicle control (0.7% dimethyl sulfoxide, DMSO), or 10 μM of the respective monoamine uptake inhibitor, mainly fluoxetine (SERT), nisoxetine (NET), or mazindol (DAT) for 10 min at room temperature while on a rotary shaker at 450 rpm (Thermomixer Comfort, Eppendorf, Hamburg, Germany). Thereafter, the monoamine uptake transporter was initiated by the addition of 50 μL of each respective radiolabelled neurotransmitter ([^3H]-5-HT, [^3H]-DA or [^3H]-NE) dissolved in the uptake buffer to a final concentration of 5 nM for an additional 10 min. Then, 100 μL of cell suspension mixture was transferred to microcentrifuge tubes containing 50 μL of 3 M potassium hydroxide (KOH, Sigma–Aldrich, Buchs, Switzerland) and 200 μL silicon oil (1:1 mixture of silicon oil type AR20 and AR200; Sigma–Aldrich, Buchs, Switzerland). Immediately after, the tubes were centrifugated (3 min, 13200 rpm) to terminate the uptake reaction by allowing the cells to move through the silicon oil into the KOH, which then lysed the cells. Quickly after, the tubes were immediately frozen with liquid nitrogen. Afterwards, the frozen cell pellet was cut off into 6 mL scintillation vials (Perkin–Elmer, Schwerzenbach, Switzerland) filled with 500 μL of lysis buffer (5 mM EDTA, 0.05 M TRIS-HCl, 50 mM NaCl and 1% NP-40 in water). Directly after the vials were shaken for 1 h at 700 rpm and then each vial was filled with 3 mL of scintillation fluid (Ultimagold, Perkin–Elmer, Schwerzenbach, Switzerland). The uptake of the monoamines was measured using a liquid scintillation counter (Packard Tri-Carb Liquid Scintillation Counter 1900 TR).
(§4) The data were analysed using Prism software (version 8, GraphPad, San Diego, CA, USA) and was fitted by a nonlinear regression to variable-slope sigmoidal dose-response curve. The IC50 values were extracted in order to determine each drug’s inhibition potency at the various monoamine transporters.

[2] = target: T2, human dopamine (hDAT) uptake transporter (Homo sapiens, UniProt Q01959); test: Monoamine uptake inhibition, dopamine uptake in transfected HEK293 cells; assay type: cell-based
T2 construct: expressed in transfected cells; host or cells: HEK293
T2 sequence (Q01959 whole entry): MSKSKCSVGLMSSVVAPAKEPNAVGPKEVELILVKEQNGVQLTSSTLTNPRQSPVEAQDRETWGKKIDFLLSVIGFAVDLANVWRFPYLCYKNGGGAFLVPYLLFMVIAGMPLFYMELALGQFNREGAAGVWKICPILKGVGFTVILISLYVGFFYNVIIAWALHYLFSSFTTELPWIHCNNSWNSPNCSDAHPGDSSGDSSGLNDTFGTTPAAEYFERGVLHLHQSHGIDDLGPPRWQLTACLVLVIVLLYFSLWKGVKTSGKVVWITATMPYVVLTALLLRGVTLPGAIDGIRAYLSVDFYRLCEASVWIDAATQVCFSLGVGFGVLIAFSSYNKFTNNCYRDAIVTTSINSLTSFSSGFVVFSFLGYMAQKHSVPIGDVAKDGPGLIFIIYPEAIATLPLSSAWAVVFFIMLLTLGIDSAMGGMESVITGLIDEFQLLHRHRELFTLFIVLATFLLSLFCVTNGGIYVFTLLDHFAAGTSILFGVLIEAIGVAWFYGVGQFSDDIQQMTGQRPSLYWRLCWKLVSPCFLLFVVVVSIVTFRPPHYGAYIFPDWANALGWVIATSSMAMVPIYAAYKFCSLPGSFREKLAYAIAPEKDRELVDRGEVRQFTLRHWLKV
Description: as §1, §2, §3, §4

[3] = target: T3, h5-HT2C receptor (Homo sapiens, UniProt P28335); test: Radioligand binding, [3H]-mesulgerine
T3 construct: expressed in transfected cells; host or cells: HEK293 cell preparations
T3 sequence (P28335 33-458): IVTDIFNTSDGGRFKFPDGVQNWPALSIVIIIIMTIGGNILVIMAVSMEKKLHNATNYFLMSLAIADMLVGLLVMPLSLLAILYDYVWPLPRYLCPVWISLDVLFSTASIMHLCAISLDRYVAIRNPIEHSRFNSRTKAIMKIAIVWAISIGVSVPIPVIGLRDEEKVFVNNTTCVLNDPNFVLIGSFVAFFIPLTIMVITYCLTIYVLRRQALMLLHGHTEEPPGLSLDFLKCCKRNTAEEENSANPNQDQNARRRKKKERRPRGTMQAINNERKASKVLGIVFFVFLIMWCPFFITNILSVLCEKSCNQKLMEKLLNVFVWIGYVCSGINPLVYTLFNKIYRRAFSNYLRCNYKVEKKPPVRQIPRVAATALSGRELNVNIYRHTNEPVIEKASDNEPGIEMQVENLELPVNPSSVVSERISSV
Description: The radioligand binding assays for the human 5-HT1A, 5-HT2A, and 5-HT2C receptors were examined as previously described by. In summary, the human embryonic kidney 293 (HEK293) cell preparations were stably transfected with the human 5-HT1A, 5-HT2A or 5-HT2C receptors and then incubated with their respective radiolabelled ligands at a concentration equal to the dissociation constant, Kd. The following radioligands were used for the 5-HT1A, 5-HT2A, and 5-HT2C receptors, respectively; 0.90 nM [^3H]8-hydroxy-2-(dipropylamino) tetralin (8-OH-DPAT), 0.40 nM [^3H]ketanserin, and 1.4 nM [^3H]mesulgerine. The radioligand displacement for each examined drug was determined. Specific binding of the radioligand to the target was calculated by subtracting the nonspecific binding (in the presence of the receptor’s competitor in excess) from the total observed binding. The following radioligand competitors were used for the 5-HT1A, 5-HT2A, and 5-HT2C receptors, respectively; 10 μM pindolol (5-HT1A receptor), 10 μM spiperone (5-HT2A receptor), and 10 μM mianserin (5-HT2C receptor).

[4] = target: h5-HT2A receptor (Homo sapiens, UniProt P28223); test: Activation potency, FLIPR calcium assay in NIH-3T3 cells; assay type: cell-based; parameters: expressed in transfected cells
Chain of h5-HT2A receptor (P28223 whole entry): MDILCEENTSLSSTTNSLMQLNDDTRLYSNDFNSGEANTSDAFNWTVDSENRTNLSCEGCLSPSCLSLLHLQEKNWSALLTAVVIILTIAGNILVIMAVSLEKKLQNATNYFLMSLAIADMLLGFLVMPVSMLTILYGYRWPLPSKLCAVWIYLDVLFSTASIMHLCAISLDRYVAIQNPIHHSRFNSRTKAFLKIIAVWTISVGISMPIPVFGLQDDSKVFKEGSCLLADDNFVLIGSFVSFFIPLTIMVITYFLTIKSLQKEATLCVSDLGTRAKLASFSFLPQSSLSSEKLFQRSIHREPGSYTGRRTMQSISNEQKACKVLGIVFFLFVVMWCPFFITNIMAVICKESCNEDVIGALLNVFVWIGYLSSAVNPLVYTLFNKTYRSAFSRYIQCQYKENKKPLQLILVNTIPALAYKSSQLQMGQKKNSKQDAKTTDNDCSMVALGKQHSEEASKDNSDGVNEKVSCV
Description: Mouse embryonic fibroblasts (NIH-3T3) were transfected with the human 5-HT2A receptors, seed into 96-well plates coated with poly-D-lysine at a concentration of 70,000 cell per 0.1 mL and then incubated for 1 h at 37 °C in HEPES-Hank’s Balanced Salt Solution (HBSS) buffer (Gibco). Next, the plates were exposed to 100 μL/well of dye solution for 1 h at 37 °C inside the FLIPR (fluorescence imagining plate reader [FLIPR] calcium 5 assay kit; Molecular Devices, Sunnyvale, CA, USA). Then, the plates were exposed to the 25 μL/well of test drugs dissolved in HEPES–HBSS buffer and 250 mM probencid during online mode. The corresponding concentration vs. response curves were fitted using nonlinear regression and the EC50 values were calculated. The efficacy (maximal activity) was calculated relative to 5-HT activity, which was defined as 100%.

[5] = compared to pyrovalerone and MPHP

SMILES	IC50 [1] [µM]	fold lower potency at the NET [1, 5] [fold]	IC50 [2] [µM]	fold lower potency at the DAT [2, 5] [fold]	Ki [3] [µM]	EC50 [4] [µM]	NET IC50 value fold higher ([1]; than observed for α-PPP)	DAT/SERT Ratio (95% CI) ([2]; (1/DAT IC50):(1/SERT IC50))	fold lower inhibition potency at the DAT ([2]; compared to α-PPP) [fold]	DAT/SERT Ratio (95% CI) [2]	DAT/SERT Ratio (95% CI) ([2]; listed as pyrovalerone)	fold higher inhibition potency at the NET [1] [fold]	fold higher potency at the DAT ([2]; compared to α-PPP) [fold]
Cc1ccc(C(=O)C(C)N2CCCC2)cc1 (stereo not drawn) [4-MePPP, 4-methyl-α-pyrrolidinopropiophenone]	0.64	11	0.75	15	> 5.1	> 10							
CCC(C(=O)c1ccc(F)cc1)N1CCCC1 (stereo not drawn) [4F-PBP, 4-fluoro-α-pyrrolidinobutiophenone]	0.61		0.5		> 15	> 20							
CNC(C)Cc1ccc2c(c1)OCO2 (centres unmarked) [MDMA, 3,4-methylenedioxymethamphetamine, reference compound]	0.41		13										
CCC(C(=O)c1ccc2c(c1)OCO2)N1CCCC1 (stereo not drawn) [MDPBP, 3,4-methylenedioxy-α-pyrrolidinobutiophenone]	0.14		0.07		> 15	> 20							
CCCCC(C(=O)c1ccc2c(c1)OCO2)N1CCCC1 (stereo not drawn) [MDPHP, 3,4-methylenedioxy-α-pyrrolidinohexanophenone]	0.06		0.05		> 15	> 20							
CC(C(=O)c1ccc2c(c1)OCO2)N1CCCC1 (stereo not drawn) [MDPPP, 3,4-methylenedioxy-α-pyrrolidinopropiophenone]	1.7		0.54		> 15	> 20							
CCCC(C(=O)c1ccc2c(c1)OCO2)N1CCCC1 (centres unmarked) [MDPV, 3,4-methylenedioxypyrovalerone]	0.05		0.03		> 15	> 20							
COc1ccc(C(=O)C(C)N2CCCC2)cc1 (stereo not drawn) [MOPPP, 4-methoxy-α-pyrrolidinopropiophenone]	8.7		4.6		> 15	> 20	about 14 fold	20 (4.0–40)	8				
CCCCC(C(=O)c1ccc(C)cc1)N1CCCC1 (stereo not drawn) [MPHP, 4-methyl-α-pyrrolidinohexanophenone]	0.07		0.06		> 15	> 20							
CCCCC(NCC)C(=O)c1ccccc1 (centres unmarked) [NEH, N-ethylamine-hexanophenone]	0.17		0.18		> 15	> 20							
CCCC(C(=O)c1ccc(C)cc1)N1CCCC1 (centres unmarked) [Pyrovalerone, pyrovalerone]	0.06		0.05		> 15	> 20				256 (125–450)	> 72		
CCCCC(C(=O)c1ccccc1)N1CCCC1 (stereo not drawn) [α-PHP, α-pyrrolidinohexanophenone]	0.06		0.06		> 15	> 20		>1000				11	9
CC(C(=O)c1ccccc1)N1CCCC1 (stereo not drawn) [α-PPP, α-pyrrolidinopropiophenone]	0.64		0.56		> 15	> 20		>1000					
CCCC(C(=O)c1ccccc1)N1CCCC1 (stereo not drawn) [α-PVP, α-pyrrolidinopentiophenone]	0.02		0.03		> 15	> 20		>1000				32	17
